Laboratory results: paper PMC8821551, “Binding of cationic analogues of α-MSH to lipopolysaccharide and disruption of the cytoplasmic membranes caused bactericidal action against Escherichia coli” (Scientific Reports, 2022)
Residues, ends and D or L forms follow the SMILES beside them.

How the values were obtained:
Type in all cases: cell-based, Escherichia coli
E. coli ATCC 25922 [1] = assay: Killing assay (killing kinetics), logarithmic phase cells; details: for concentration at which a bactericidal effect (> 3 log reduction) was achieved: logarithmic phase E. coli cells (Fig. 1); for log reduction in cell viability: average ± SE, SEM
Method: (§1) For this study, a well-characterized strain of E. coli (ATCC 25922) was used. The strain was stored at − 80 °C in 15% (v/v) glycerol until sub-cultured onto LB agar plates for use.
(§2) The antibacterial activity of α-MSH and its cationic analogues was determined against both logarithmic (2–3 h) and stationary (16–18 h) phase of E. coli cells in LB medium. The bacterial suspension was pelleted, washed, and diluted in HEPES-glucose buffer (5 mM HEPES, 20 mM glucose, pH 7.4) to adjust the cell density by measuring the OD = 0.5 (10^8 CFU/mL) at 600 nm using a spectrophotometer. This suspension was used to obtain the desired inoculum sizes (10^5 CFU/mL, 10^6 CFU/mL, and 10^7 CFU/mL). The inoculums were exposed to various concentrations of peptides (1 µM, 2 µM, 5 µM, and 10 µM) and incubated at 37 °C. Untreated E. coli cells were also included as a control. At selected time points (0 min, 15 min, 30 min, 60 min, and 120 min), aliquots were taken out, and survival of E. coli cells was determined by quantitative plating on LB agar after appropriate dilution in the same buffer. The plates were incubated overnight at 37 °C, followed by colony counting. Each experiment was performed at least three times on three independent days.

[2] = system: E. coli cytoplasmic or inner membrane; assay: Membrane depolarization assay (DiSC3(5)); details: DiSC3(5) 0.4 µM, 0.2 mM EDTA, 10^6 CFU/mL mid-log cells, HEPES-glucose buffer; peptide 1 to 10 µM
Method: The membrane depolarization of E. coli cells was determined using a potentiometric fluorescent probe DiSC3(5), as described elsewhere. Briefly, mid-log phase E. coli cells were diluted to 10^6 CFU/mL in the same HEPES-glucose buffer and were incubated with DiSC3(5) and EDTA at 0.4 µM and 0.2 mM concentrations, respectively, for 1 h in the dark at 37 °C, till the maximum uptake of the probe occurred. Increasing concentrations of the studied peptides from 1 µM to 10 µM were then added to these dye-loaded cells in a quartz cuvette, and the fluorescence intensity was measured on spectrofluorimeter (Shimadzu RF-5301 PC) set as excitation at 622 nm and emission at 670 nm. The increase in fluorescence intensity accounted for the dissipation of membrane potential caused due to peptide treatment. Cells treated with 10 µM melittin were used as a positive control. Simultaneously, the dye-loaded cells were plated onto LB agar to estimate bacterial cell death.

E. coli cells = assay: Membrane permeabilization assay (PI uptake, flow cytometry); details: 1 h; for PI positive cells: at lower and higher concentrations, from 2 to 10 µM, 10^6 CFU/mL, PI 1.3 µg/mL, 37 °C, flow cytometry; for cell viability on plating the cell suspension used for the PI uptake assay, in words: same cell density and peptide concentrations as PI uptake experiment
Method: Membrane permeabilization of E. coli cells was determined via propidium iodide (PI) uptake assay through flow cytometry as described previously with slight modifications. Briefly, mid-log phase E. coli cells were adjusted to 10^6 CFU/mL in the HEPES-glucose buffer. Next, cells were incubated with propidium iodide (PI) at 1.3 µg/mL concentration for 30 min in the dark. After incubation, PI-loaded cells were treated with a range of peptide concentrations, i.e., 1 µM, 2 µM, 5 µM, and 10 µM, at 37 °C for 1 h, and PI fluorescence intensity was measured through Becton Dickinson (BD) FACS verse (San Jose, CA) flow cytometer using excitation at 544 nm and emission at 620 nm.
Figure S2: Histograms of E. coli cells treated with 2 µM concentration of α-MSH and its analogues and 1 µM concentration of polymyxin B for 1 h. Towards monitoring the membrane permeabilizations of E. coli cells, propidium iodide (PI) uptake assay through flow cytometry was performed using the previously standardized method with mild modifications ^2. Briefly, mid-log phase grown E. coli cells (10^6 CFU/mL) suspended in the HEPES-glucose buffer were incubated with propidium iodide (PI) at a concentration of 1.3 µg/mL for 30 min in dark. After incubation, PI loaded cells were treated with a range of peptide concentrations; 1 µM, 2 µM, 5 µM and 10 µM at 37 °C for 1 h, and PI fluorescence intensity was measured through Becton Dickinson (BD) FACS verse (San Jose, CA) flow cytometer using excitation at 544 nm and emission at 620 nm.

E. coli ATCC 25922 [3] = assay: Transmission electron microscopy (TEM) of treated cells; details: 100 µM peptide, 2 h, 37 °C, 10^8 CFU/mL mid-log cells
Method: To detect ultra-structural changes in E. coli on peptide treatment, TEM was used[16]. In brief, the mid-log E. coli cells (10^8 CFU/mL) were exposed with 100 µM concentration of all peptides independently for 2 h at 37 °C. After treatment, the cells were washed with PB buffer and fixed with 2.5% glutaraldehyde overnight at 4 °C. Next, the samples were post-fixed in 1.0% OsO4 and stained with uranyl acetate. After fixation, cells were dehydrated in a series of graded acetone and embedded in epoxy resin. Thin sections were made using a microtome (Leica EM UC6), which were transferred onto copper grids and stained with uranyl acetate followed by lead citrate. Samples were viewed via a transmission electron microscope (JEOL 2100F) to detect the ultrastructural and other morphological changes in the bacterial cells.

[4] = system: stationary phase E. coli cells; assay: Killing assay, stationary phase cells; details: 10^5 CFU/mL
Method: as §1, §2

E. coli outer membrane = assay: Outer membrane permeabilization assay (NPN uptake); details: 10^8 CFU/mL mid-log cells, 10 μM NPN, relative to 10 µM polymyxin B = 100%
Method: The outer membrane permeabilization assay was done as described in the literature with slight modifications. Briefly, bacterial cells were grown to mid-log phase in LB medium, washed and diluted to 10^8 CFU/mL in HEPES-glucose buffer. Next, this bacterial suspension was treated with 10 μM NPN probe and subsequently challenged with increasing concentrations of peptides (1 µM to 20 µM). Changes in the fluorescence intensity of NPN were measured with the help of Shimadzu RF-5301 PC spectrofluorimeter (excitation at 350 nm and emission at 420 nm). Increased intensity of emission resulted from the damage to the bacterial outer membrane and was measured until no further increase in fluorescence was observed. NPN uptake was calculated using the following formula: %NPNuptake=Fobs-F0/F100-F0×100 where Fobs is the NPN fluorescence intensity after the peptide treatment, F0 is the NPN fluorescence with untreated E. coli cells, and F100 is the NPN fluorescence in the presence of 10 µM polymyxin B (a positive control).

[5] = peptide 1 μM, HEPES-glucose buffer, average of three independent days
[6] = peptide 20 μM (highest concentration)

In the case of `CSCC[C@H](NC(=O)[C@H](CCCCN)NC(=O)[C@H](Cc1ccc(O)cc1)NC(=O)[C@H](CCCCN)NC(C)=O)C(=O)N[C@@H](C)C(=O)N[C@@H](Cc1c[nH]cn1)C(=O)N[C@@H](Cc1ccccc1)C(=O)N[C@@H](CCCNC(=N)N)C(=O)N[C@@H](Cc1c[nH]c2ccccc12)C(=O)NCC(=O)N[C@@H](CCCCN)C(=O)N1CCC[C@H]1C(=O)N[C@H](C(N)=O)C(C)C` [KKA-MSH] (Ac-KYKMAHFRWGKPV-NH2), the “concentration at which a bactericidal effect (> 3 log reduction) was achieved” value (E. coli ATCC 25922 [1]) is reported as 5 µM, the “log reduction in cell viability” value (E. coli ATCC 25922 [1]; logarithmic phase, 10^5 CFU/mL, HEPES-glucose buffer pH 7.4, 37 °C, peptide 1 µM, 1 h, three independent experiments) is reported as 1.8 ± 0.1 log and the “log reduction in cell viability” value (E. coli ATCC 25922 [1]; logarithmic phase, 10^5 CFU/mL, HEPES-glucose buffer pH 7.4, 37 °C, peptide 1 µM, 2 h, three independent experiments) is reported as 2.1 ± 0.1 log. For the same compound, the “log reduction in cell viability” value (E. coli ATCC 25922 [1]; logarithmic phase, 10^5 CFU/mL, HEPES-glucose buffer pH 7.4, 37 °C, peptide 2 µM, 1 h, three independent experiments) was 2.7 ± 0.3 log, the “log reduction in cell viability” value (E. coli ATCC 25922 [1]; logarithmic phase, 10^5 CFU/mL, HEPES-glucose buffer pH 7.4, 37 °C, peptide 2 µM, 2 h, three independent experiments) was 2.9 ± 0.2 log and the “change of killing activity at 5 µM against lower concentrations, in words” value (E. coli ATCC 25922 [1]; logarithmic phase, 10^5 CFU/mL, peptide 5 µM) was “no change in its activity”. The “bactericidal effect (> 3 log reduction), in words” value (E. coli ATCC 25922 [1]; logarithmic phase, 10^5 CFU/mL, peptide 2, 5 and 10 µM, 1 h of incubation) was “accomplished bactericidal effect”, the “log reduction in cell viability” value (E. coli ATCC 25922 [1]; logarithmic phase, 10^6 CFU/mL, peptide 10 µM, 2 h, three independent days) was 3.5 ± 0.2 log and the “log reduction in cell viability” value (E. coli ATCC 25922 [1]; logarithmic phase, 10^7 CFU/mL, peptide 10 µM, 2 h, three independent days) was 2.7 ± 0.02 log. The “lowest concentration that induced depolarization of E. coli inner membrane” value [2] was 2 µM, the PI positive cells (E. coli cells) was “more than 80%” and the “cell viability on plating the cell suspension used for the PI uptake assay, in words” value (E. coli cells) was “significant reduction in the cell viability”. For the same compound, the “ultrastructural changes by TEM, in words” value (E. coli ATCC 25922 [3]) was “complete collapse of the E. coli membrane”, the “log reduction in cell viability” value ([4]; HEPES-glucose buffer, 37 °C, peptide 10 µM, 2 h, mean ± SE, three independent days, SEM) was 2.2 ± 0.2 log and the “killing activity against stationary phase cells, in words” value ([4]; peptide 10 µM, up to 2 h) was “could not obliterate the stationary phase cells”. The “%NPN uptake” value (E. coli outer membrane; [5]) was 12.5% and the “%NPN uptake” value (E. coli outer membrane; [6]) was 55%.
In the case of `CSCC[C@H](NC(=O)[C@H](CCCCN)NC(=O)[C@H](Cc1ccc(O)cc1)NC(=O)[C@H](CCCCN)NC(C)=O)C(=O)N[C@@H](CCCCN)C(=O)N[C@@H](Cc1c[nH]cn1)C(=O)N[C@@H](Cc1ccccc1)C(=O)N[C@@H](CCCNC(=N)N)C(=O)N[C@@H](Cc1c[nH]c2ccccc12)C(=O)NCC(=O)N[C@@H](CCCCN)C(=O)N1CCC[C@H]1C(=O)N[C@H](C(N)=O)C(C)C` [KKK-MSH] (Ac-KYKMKHFRWGKPV-NH2), the “concentration at which a bactericidal effect (> 3 log reduction) was achieved” value (E. coli ATCC 25922 [1]) is reported as 1 µM, the “incubation time to complete eradication of the cells” value (E. coli ATCC 25922 [1]; logarithmic phase, 10^5 CFU/mL, HEPES-glucose buffer, 37 °C, peptide 1 µM) is reported as no more than 15 min and the “incubation time to complete eradication of the cells” value (E. coli ATCC 25922 [1]; logarithmic phase, 10^5 CFU/mL, HEPES-glucose buffer, 37 °C, peptide 2 µM) is reported as no more than 15 min. For the same compound, the “log reduction in cell viability (bactericidal effect)” value (E. coli ATCC 25922 [1]; logarithmic phase, 10^5 CFU, peptide 1 µM, within 15 min) was greater than 3 log, the “complete eradication of the cells, in words” value (E. coli ATCC 25922 [1]; logarithmic phase, 10^6 CFU/mL, peptide 1 µM) was “not at 1 µM concentration” and the “incubation time to complete eradication of the cells” value (E. coli ATCC 25922 [1]; logarithmic phase, 10^6 CFU/mL, peptide 2 µM) was 60 min. The “incubation time to complete eradication of the cells” value (E. coli ATCC 25922 [1]; logarithmic phase, 10^6 CFU/mL, peptide 5 µM) was 30 min, the “incubation time to complete eradication of the cells” value (E. coli ATCC 25922 [1]; logarithmic phase, 10^6 CFU/mL, peptide 10 µM) was 15 min and the “incubation time to no viable cells” value (E. coli ATCC 25922 [1]; logarithmic phase, 10^7 CFU/mL, peptide 10 µM) was 1 h. The “lowest concentration at which the bactericidal effect was maintained” value (E. coli ATCC 25922 [1]; logarithmic phase, high cell density) was 2 µM, the “lowest concentration that induced depolarization of E. coli inner membrane” value [2] was 2 µM and the PI positive cells (E. coli cells) was “more than 80%”. The “cell viability on plating the cell suspension used for the PI uptake assay, in words” value (E. coli cells) was “significant reduction in the cell viability”, the “ultrastructural changes by TEM, in words” value (E. coli ATCC 25922 [3]) was “complete collapse of the E. coli membrane” and the “incubation time to complete removal of the cells” value ([4]; peptide 1 µM) was 2 h. The “log reduction in the viability of the stationary phase cells” value ([4]; peptide 1 µM, 1 h) was 2.5 log, the “incubation time to eradication of the stationary phase cells” value ([4]; peptide 10 µM) was 30 min and the “%NPN uptake” value (E. coli outer membrane; [5]) was 30.7%. The “%NPN uptake” value (E. coli outer membrane; peptide 2 μM) was 34%, the “%NPN uptake” value (E. coli outer membrane; peptide 5 μM) was 55.6% and the “%NPN uptake” value (E. coli outer membrane; peptide 10 μM) was 77.6%. The “%NPN uptake” value (E. coli outer membrane; [6]) was 86%.
